Literature values in patent US10537636B2, “Treatment of cancer with therapeutic monoclonal antibody specific for a tumor associated antigen and an immune adjuvant” (Oncoquest, Inc., priority 2017, dated 2020).

Test system: advanced ovarian cancer
Details: mono-immunotherapy following front-line chemotherapy

Which clinical outcome does the source give for oregovomab here?
The clinical outcome was “failed to improves clinical outcome”.
